Test results reported in patent publication US8017828B2, “Utilization of rare sugars in plant or microorganism” (Shikoku Research Institute Incorporated, priority 2004, dated 2011).

Key:
[1] = system: cherry tomato plant “mini carol”; test: Growth of cherry tomato seedlings with D-allose in nutrient solution; format: in vivo; set-up: key to Number of opening flowers: z: Bud formation could not be confirmed; settings: for Fresh leaf weight / Fresh stem weight / Number of leaves / Number of opening flowers / Stem diameter / Stem length: 4 weeks
Experimental: On Jul. 13, 2004, seeds of a cherry tomato plant “mini carol” (Sakata Seed Co., Ltd.) were sown one by one in the respective holes using 30 holes among the 253 holes of a rockwool (280 mm (width)×580 mm (length)), which was placed in a plastic container with a capacity of 8 L. In this plastic container, 1 L of each nutrient solution in which a fertilizer (Otsuka No. 1 (1.5 g/L) and Otsuka No. 2 (1.0 g/L)) was dissolved was poured, then, the cultivation was carried out in a glass chamber without heating. With regard to a treated plot, 7 treated plots in which a treatment liquid obtained by adding D-allose at 0 to 5 mM to the fertilizer nutrient solution was poured in the plastic container from July 20 when the seeds germinated completely were prepared. Incidentally, the treatment liquid was added in the same amount to the respective treated plots according to need. A survey was carried out with regard to the growth at 4 weeks after the initiation of the treatment.

[2] = system: Arabidopsis thaliana Lan dsberg erecta (LER); test: Germination of Arabidopsis thaliana with 8 ketoses; format: in vivo; settings: 100 mM aqueous solution
Experimental: An effect of 8 types of ketoses on germination of Arabidopsis thaliana LER series which was an experimental plant was examined.
Two sheets of filter paper were placed in a dish with a diameter of 3.5 cm, and 30 seeds of Arabidopsis thaliana Lan dsberg erecta (LER) were sown per dish, and 0.5 mL of a treatment liquid was poured therein. Then, the dishes were placed in an environment control chamber under the condition of a constant temperature of 25° C. and 24-hour day length (fluorescent lamp, 70 μmol/m^2/s). After the sowing, a survey was carried out with regard to the number of seeds that germinated at 24-hour interval. As the treatment liquid, 100 mM, 10 mM and 1 mM aqueous solutions of any of D-fructose, D-psicose, D-tagatose, D-sorbose, L-fructose, L-psicose, L-tagatose and L-sorbose, and distilled water were used. The procedure was repeated three times for the respective treatment liquids.

[3] = system: PBZ1, chitinase gene (PCG3), PAL gene; test: Northern blot of genes related to resistance in rice after D-psicose treatment; format: in vivo
Experimental: A seedling of a rice plant (variety: Nihonbare, see FIG. 10, the middle of the photograph, the white bar: 5 mm) at day 5 after sowing was used for an experiment. The rice seedling was raised by hydroponic culture in a pot using Kimura B solution. The Kimura B solution was supplemented with D-psicose at each concentration. While the solution was replaced with the same solution every 5 days, cultivation was carried out for 10 days. Thereafter, the seedling was transplanted to a pot filled with soil, and then, cultivation was carried out with natural light in a glass chamber for 7 days. Then, total RNA was extracted and a Northern blot analysis was carried out.

[4] = system: Fusarium oxysporum (IFO 31213 strain); format: in vivo, tomato plant (variety: “House Momotaro”)
Experimental: By using a tomato plant and a strain of Fusarium oxysporum, which is a typical pathogenic bacterium of tomato, an effect of D-psicose during infection in a stage of raising seedlings thereof was examined.
To be more specific, seeds of a tomato plant (variety: “House Momotaro”) were subjected to an immersion treatment by immersing them in a 0.01% (w/v) D-psicose solution or a 0.007% (w/v) probenazole solution for 15 minutes while stirring slowly, followed by air-drying on sterile gauze, and then used as treated seeds. In the medium culture for raising seedlings (pete:pearlite:vermiculite=2:1:1), 0.01% (w/v) D-psicose or 0.007% (w/v) probenazole was mixed, and the soil was placed in black polypot plant containers with a diameter of 9 cm, and then, 4 seeds of the above treated seeds were sown in each pot. The seeds (20 seeds in total) were sown in 5 pots for each test plot. After sowing, the pots were placed in a growth chamber at 23° C. and 5,000 Lux (12-hour day length), and raising of seedlings was initiated. At 1 month and 2 months after the initiation of raising of seedlings, a suspension of mycelium of Fusarium oxysporum (IFO 31213 strain) was inoculated around the roots, whereby infection with Fusarium oxysporum was caused. After the inoculation of Fusarium oxysporum, the temperature was raised to 30° C., and cultivation was continued. At about 4 months after sowing, a survey was carried out with regard to the survival rate of plants, the conditions of browning of vascular bundles and roots, the stem diameter and the like.

[5] = system: tomato plant (variety: “House Momotaro”); test: Germination of D-psicose treated tomato seeds on agar without Fusarium oxysporum; format: in vivo; settings: no Fusarium oxysporum; D-psicose seed 0.05%, medium non
Experimental: To be more specific, seeds of a tomato plant (variety: “House Momotaro”) were subjected to an immersion treatment by immersing them in a D-psicose solution at a concentration of from 0.01% (w/v) to 0.1% (w/v) for 15 minutes while stirring slowly, followed by air-drying on sterile gauze, and then used as treated seeds. […] At this time, test plots in which D-psicose was added to the agar medium at a concentration of from 0.01% (w/v) to 0.1% (w/v) were prepared. Then, the dishes were placed at 23° C. under the dark condition for 7 days to 10 days, and observation was carried out with regard to the elongation of shoot, the elongation of root, the shoot development rate, the infection state in root and the like.

[6] = 0.5 mM for 10 days, 1 week after transplanting

**Q.** With `O=C[C@H](O)[C@H](O)[C@H](O)[C@H](O)CO` [D-allose] as the compound, how does the flowering ([1]; 0.01 mM) read?
**A.** promoting flowering

**Q.** And the “promotion of growth in the stem length in comparison with the untreated plot” value ([1]; 0.01 mM)?
**A.** 33%

**Q.** And the “promotion of growth in the stem weight in comparison with the untreated plot” value ([1]; 0.01 mM)?
**A.** 67%

**Q.** And the growth ([1]; 5 mM)?
**A.** some growth inhibition

**Q.** What about the Fresh leaf weight ([1]; D-allose 0.01 mM) of the same compound?
**A.** 10.9 g

**Q.** And the Fresh stem weight ([1]; D-allose 0.01 mM)?
**A.** 16.4 g

**Q.** What about the Number of leaves ([1]; D-allose 0.01 mM) of the same compound?
**A.** 9.3

**Q.** And the “Number of opening flowers” value ([1]; D-allose 0.01 mM)?
**A.** 0.6

**Q.** What about the Stem diameter ([1]; D-allose 0.01 mM) of the same compound?
**A.** 5.3 mm

**Q.** And the Stem length ([1]; D-allose 0.01 mM)?
**A.** 69.1 cm

**Q.** And the Fresh leaf weight ([1]; D-allose 0.05 mM)?
**A.** 6.9 g

**Q.** And the Fresh stem weight ([1]; D-allose 0.05 mM)?
**A.** 11.7 g

**Q.** What about the Number of leaves ([1]; D-allose 0.05 mM) of the same compound?
**A.** 8.9

**Q.** And the “Number of opening flowers” value ([1]; D-allose 0.05 mM)?
**A.** 0.4

**Q.** What about the Stem diameter ([1]; D-allose 0.05 mM) of the same compound?
**A.** 4.3 mm

**Q.** And the Stem length ([1]; D-allose 0.05 mM)?
**A.** 60.9 cm

**Q.** What about the Fresh leaf weight ([1]; D-allose 0.1 mM) of the same compound?
**A.** 8.6 g

**Q.** What about the Fresh stem weight ([1]; D-allose 0.1 mM) of the same compound?
**A.** 11.1 g

**Q.** What about the Number of leaves ([1]; D-allose 0.1 mM) of the same compound?
**A.** 9.0

**Q.** And the “Number of opening flowers” value ([1]; D-allose 0.1 mM)?
**A.** 0.0

**Q.** And the Stem diameter ([1]; D-allose 0.1 mM)?
**A.** 4.3 mm

**Q.** What about the Stem length ([1]; D-allose 0.1 mM) of the same compound?
**A.** 56.7 cm

**Q.** What about the Fresh leaf weight ([1]; D-allose 0.5 mM) of the same compound?
**A.** 8.3 g

**Q.** And the Fresh stem weight ([1]; D-allose 0.5 mM)?
**A.** 11.2 g

**Q.** What about the Number of leaves ([1]; D-allose 0.5 mM) of the same compound?
**A.** 8.3

**Q.** And the “Number of opening flowers” value ([1]; D-allose 0.5 mM)?
**A.** 0.0

**Q.** What about the Stem diameter ([1]; D-allose 0.5 mM) of the same compound?
**A.** 4.5 mm

**Q.** And the Stem length ([1]; D-allose 0.5 mM)?
**A.** 57.0 cm

**Q.** What about the Fresh leaf weight ([1]; D-allose 1.0 mM) of the same compound?
**A.** 9.7 g

**Q.** And the Fresh stem weight ([1]; D-allose 1.0 mM)?
**A.** 13.7 g

**Q.** What about the Number of leaves ([1]; D-allose 1.0 mM) of the same compound?
**A.** 9.6

**Q.** And the “Number of opening flowers” value ([1]; D-allose 1.0 mM)?
**A.** 0.0

**Q.** What about the Stem diameter ([1]; D-allose 1.0 mM) of the same compound?
**A.** 4.8 mm

**Q.** And the Stem length ([1]; D-allose 1.0 mM)?
**A.** 59.0 cm

**Q.** What about the Fresh leaf weight ([1]; D-allose 5.0 mM) of the same compound?
**A.** 4.8 g

**Q.** And the Fresh stem weight ([1]; D-allose 5.0 mM)?
**A.** 6.7 g

**Q.** And the Number of leaves ([1]; D-allose 5.0 mM)?
**A.** 7.0

**Q.** And the “Number of opening flowers” value ([1]; D-allose 5.0 mM)?
**A.** z

**Q.** What about the Stem diameter ([1]; D-allose 5.0 mM) of the same compound?
**A.** 4.2 mm

**Q.** What about the Stem length ([1]; D-allose 5.0 mM) of the same compound?
**A.** 40.4 cm

**Q.** For `O=C(CO)[C@H](O)[C@H](O)[C@H](O)CO` [D-psicose], which inhibition of germination [2] is on record?
**A.** clearly inhibited

**Q.** What about the “expression of genes related to rice disease resistance in leaves” value ([3]; 0.5 mM 10 days, then one week in soil without D-psicose) of the same compound?
**A.** induction

**Q.** And the “induction of PBZ1” value [3, 6]?
**A.** strongly observed

**Q.** And the “induction of chitinase gene (PCG3)” value [3, 6]?
**A.** strongly observed

**Q.** What about the “effect on PAL gene” value ([3]; constantly expressed gene) of the same compound?
**A.** no effect

**Q.** And the “expression of PBZ1 and chitinase gene (PCG3)” value ([3]; treated plots of from 0.0005 to 0.1 mM)?
**A.** not expressed

**Q.** What about the “degree of chemical damage (yellow discoloration of leaves)” value ([4]; in vivo) of the same compound?
**A.** smaller than that of the case of probenazole

**Q.** And the “Vascular bundle browning ratio” value ([4]; seed immersion (0.01% D-psicose or 0.007% probenazole), no seed treatment 25%)?
**A.** 5%

**Q.** And the Stem diameter ([4]; seed immersion treatment)?
**A.** increased

**Q.** What about the “inhibitory effect on Fusarium wilt” value ([4]; seed immersion with D-psicose solution) of the same compound?
**A.** equal to or more than that of probenazole

**Q.** And the Root length [5]?
**A.** 7.4 cm

**Q.** What about the Shoot length [5] of the same compound?
**A.** 6.7 cm
